Measured values reported in ChEMBL document CHEMBL1201862, “PubChem BioAssay data set” (2004).
The source made the active and inactive calls.

Legend:
[1] = biological target: T1, Type-1 angiotensin II receptor (Homo sapiens, UniProt P30556); assay: AT1 receptor antagonists, dose response, selectivity assay for APJ receptor antagonist project, cell-based, uHTS hits (AID 463214); format: functional;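 further: antagonist potency against angiotensin II stimulated AT1 response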
T1 sequence (P30556 whole entry): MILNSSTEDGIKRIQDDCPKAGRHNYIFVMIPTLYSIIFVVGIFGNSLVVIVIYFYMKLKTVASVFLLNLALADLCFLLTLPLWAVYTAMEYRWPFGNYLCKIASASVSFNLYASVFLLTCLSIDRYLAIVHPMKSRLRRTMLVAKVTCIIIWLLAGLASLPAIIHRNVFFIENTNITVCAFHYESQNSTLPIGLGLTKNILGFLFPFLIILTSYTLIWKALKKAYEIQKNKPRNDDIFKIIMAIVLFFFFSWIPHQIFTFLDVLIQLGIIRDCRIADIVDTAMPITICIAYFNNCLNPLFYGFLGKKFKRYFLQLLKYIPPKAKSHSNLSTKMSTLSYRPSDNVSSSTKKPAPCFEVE

[2] = biological target: Beta-galactosidase (Escherichia coli, UniProt Q8VNN2); assay: PubChem AID 485352; format: functional
Sequence of Beta-galactosidase (Q8VNN2 whole entry): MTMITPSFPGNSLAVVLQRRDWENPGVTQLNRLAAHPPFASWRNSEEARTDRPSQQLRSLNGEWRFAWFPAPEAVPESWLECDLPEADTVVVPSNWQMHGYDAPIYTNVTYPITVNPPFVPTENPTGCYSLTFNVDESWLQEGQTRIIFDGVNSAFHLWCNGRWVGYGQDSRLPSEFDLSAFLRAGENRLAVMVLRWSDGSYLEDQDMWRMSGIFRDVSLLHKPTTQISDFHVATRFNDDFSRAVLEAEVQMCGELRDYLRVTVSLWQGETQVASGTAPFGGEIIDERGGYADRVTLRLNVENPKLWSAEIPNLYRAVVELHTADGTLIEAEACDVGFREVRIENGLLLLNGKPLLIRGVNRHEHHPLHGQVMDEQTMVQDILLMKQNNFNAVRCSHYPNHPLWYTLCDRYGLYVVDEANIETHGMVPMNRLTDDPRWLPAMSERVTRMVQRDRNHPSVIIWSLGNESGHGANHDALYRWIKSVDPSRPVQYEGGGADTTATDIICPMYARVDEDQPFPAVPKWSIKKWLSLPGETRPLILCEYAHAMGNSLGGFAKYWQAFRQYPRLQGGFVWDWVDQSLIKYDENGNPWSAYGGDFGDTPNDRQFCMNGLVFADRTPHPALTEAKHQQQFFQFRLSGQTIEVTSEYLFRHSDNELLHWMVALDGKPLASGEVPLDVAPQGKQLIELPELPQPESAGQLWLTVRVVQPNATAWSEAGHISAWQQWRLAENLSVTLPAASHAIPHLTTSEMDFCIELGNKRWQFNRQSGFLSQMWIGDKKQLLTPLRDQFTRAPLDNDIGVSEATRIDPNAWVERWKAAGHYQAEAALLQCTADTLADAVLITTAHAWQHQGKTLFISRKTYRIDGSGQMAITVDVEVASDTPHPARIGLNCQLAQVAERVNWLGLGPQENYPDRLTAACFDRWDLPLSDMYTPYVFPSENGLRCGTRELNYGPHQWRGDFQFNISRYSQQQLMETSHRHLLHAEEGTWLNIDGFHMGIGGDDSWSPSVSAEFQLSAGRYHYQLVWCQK

[3] = biological target: T2, Low molecular weight phosphotyrosine protein phosphatase (Homo sapiens, UniProt P24666); format: functional; conditions: read-out: IC50_Mean;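 further: Dose-response confirmation assay measuring inhibition of LMPTP enzyme activity by fluorescence intensity read-out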
T2 sequence (P24666 whole entry): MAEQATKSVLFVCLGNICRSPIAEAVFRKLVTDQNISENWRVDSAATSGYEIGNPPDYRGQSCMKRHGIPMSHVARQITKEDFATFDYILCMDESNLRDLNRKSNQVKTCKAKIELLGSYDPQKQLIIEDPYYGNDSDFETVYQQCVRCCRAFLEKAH

[4] = Luminescence Cell-Based Dose Confirmation HTS to Identify Activators of 5'UTR Stem-Loop Driven Alpha-Synuclein mRNA Translation in H4 Neuroglioblastoma Cells. [Related pubchem assays: 1829 (Project Summary), 1814 (Primary HTS)]; format: functional
[5] = Luminescence Cell-Based Dose Response HTS to Identify Activators of Luciferase Translation or Activity in H4 […] Cells. [Related pubchem assays: 1829 (Project Summary), 1814 (Primary HTS)]; format: functional
[6] = tested on: Escherichia coli; assay: microbe, parasite or virus in culture
[7] = tested on: H4; assay: Luminescence Cell-Based Dose Response HTS to Identify Activators of 5'UTR Stem-Loop Driven Prion Protein mRNA Translation in H4 Neuroglioblastoma Cells. [Related pubchem assays: 1829 (Project Summary), 1814 (Primary HTS)]; format: functional; conditions: Homo sapiens
[8] = biological target: Dual specificity tyrosine-phosphorylation-regulated kinase 1A (Rattus norvegicus, UniProt Q63470); format: biochemical, Homo sapiens
[9] = biological target: T3, Endoribonuclease toxin MazF (Escherichia coli K-12, UniProt P0AE70); assay: MazF toxin RNase activators, dose response, biochemical, fluorescence, single-stranded RNA substrate, uHTS hits (AID 588481); format: functional
T3 sequence (P0AE70 whole entry): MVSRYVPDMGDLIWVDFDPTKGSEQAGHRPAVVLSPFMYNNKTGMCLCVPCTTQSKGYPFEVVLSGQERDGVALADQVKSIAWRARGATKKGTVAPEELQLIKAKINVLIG

[10] = biological target: T4, Rac GTPase-activating protein 1 (Homo sapiens, UniProt Q9H0H5); assay: MgcRacGAP GTPase-activating activity inhibitors, confirmation, biochemical, ADP Hunter fluorescence, primary and confirmatory (AID 624330); format: functional
T4 sequence (Q9H0H5 whole entry): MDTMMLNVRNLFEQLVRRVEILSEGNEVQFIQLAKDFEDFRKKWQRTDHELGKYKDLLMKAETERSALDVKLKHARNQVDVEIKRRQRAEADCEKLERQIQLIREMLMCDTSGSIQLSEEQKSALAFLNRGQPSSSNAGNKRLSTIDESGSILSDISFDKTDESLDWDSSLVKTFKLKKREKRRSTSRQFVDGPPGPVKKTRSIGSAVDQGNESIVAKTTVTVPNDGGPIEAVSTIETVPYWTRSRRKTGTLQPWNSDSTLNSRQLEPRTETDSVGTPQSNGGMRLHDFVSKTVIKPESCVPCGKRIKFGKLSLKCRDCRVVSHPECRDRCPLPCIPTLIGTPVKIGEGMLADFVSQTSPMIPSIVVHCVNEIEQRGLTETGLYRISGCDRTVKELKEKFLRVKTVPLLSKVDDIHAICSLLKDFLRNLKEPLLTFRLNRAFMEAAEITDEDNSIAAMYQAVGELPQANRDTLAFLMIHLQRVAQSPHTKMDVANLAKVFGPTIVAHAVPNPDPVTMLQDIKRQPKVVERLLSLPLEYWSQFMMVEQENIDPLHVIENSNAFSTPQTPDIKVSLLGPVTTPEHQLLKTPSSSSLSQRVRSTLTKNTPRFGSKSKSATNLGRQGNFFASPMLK

[11] = biological target: T3, Endoribonuclease toxin MazF; assay: fluorescent RNA oligo signal without MazF, dose response, counter-screen for MazEF activator project, biochemical, fluorescence, single-stranded RNase substrate (AID 588502); format: functional
[12] = biological target: Cytochrome P450 3A4 (Homo sapiens, UniProt P08684);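 further: CYP3A4 tested as one member of a cytochrome P450 panel screen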
Sequence of Cytochrome P450 3A4 (P08684 whole entry): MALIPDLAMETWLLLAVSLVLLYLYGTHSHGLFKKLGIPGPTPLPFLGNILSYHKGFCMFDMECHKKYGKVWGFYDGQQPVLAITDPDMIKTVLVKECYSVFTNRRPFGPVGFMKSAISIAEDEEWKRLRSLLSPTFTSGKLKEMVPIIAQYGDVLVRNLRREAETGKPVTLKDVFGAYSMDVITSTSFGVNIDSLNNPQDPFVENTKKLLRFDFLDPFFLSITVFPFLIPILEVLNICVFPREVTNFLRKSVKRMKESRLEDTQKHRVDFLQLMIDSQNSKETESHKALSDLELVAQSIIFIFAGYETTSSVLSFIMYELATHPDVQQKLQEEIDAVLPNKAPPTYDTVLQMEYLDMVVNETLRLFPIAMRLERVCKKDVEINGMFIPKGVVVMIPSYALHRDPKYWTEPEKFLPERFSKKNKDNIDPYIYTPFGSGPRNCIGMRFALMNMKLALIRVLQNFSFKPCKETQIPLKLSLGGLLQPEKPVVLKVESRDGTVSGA

[13] = biological target: T5, Microphthalmia-associated transcription factor (Homo sapiens, UniProt O75030); assay: TRPM1 promoter luciferase signal decrease, dose response, MITF inhibitor project, cell-based, SK-MEL-5, cherry-picked, set 3 (AID 493073); format: functional
T5 sequence (O75030 whole entry): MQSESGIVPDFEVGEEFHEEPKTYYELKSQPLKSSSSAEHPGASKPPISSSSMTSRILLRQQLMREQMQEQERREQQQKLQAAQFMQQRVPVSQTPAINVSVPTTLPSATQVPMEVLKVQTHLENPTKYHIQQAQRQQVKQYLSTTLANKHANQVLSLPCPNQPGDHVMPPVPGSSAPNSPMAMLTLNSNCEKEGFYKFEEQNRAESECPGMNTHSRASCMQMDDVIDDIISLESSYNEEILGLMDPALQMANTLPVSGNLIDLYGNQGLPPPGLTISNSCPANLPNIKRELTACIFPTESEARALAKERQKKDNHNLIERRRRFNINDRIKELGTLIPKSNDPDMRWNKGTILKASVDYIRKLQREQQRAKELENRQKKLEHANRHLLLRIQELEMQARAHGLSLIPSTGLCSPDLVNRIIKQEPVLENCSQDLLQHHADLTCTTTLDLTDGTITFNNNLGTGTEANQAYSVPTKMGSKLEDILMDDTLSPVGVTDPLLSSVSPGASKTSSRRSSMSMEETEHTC

[14] = biological target: FAD-linked sulfhydryl oxidase ALR (Homo sapiens, UniProt P55789); assay: inhibitors of human ALR sulfhydryl oxidase, dose response, biochemical, H2O2 detection, luminescence, cherry-pick (AID 493248)
Sequence of FAD-linked sulfhydryl oxidase ALR (P55789 whole entry, the tested form may be a part): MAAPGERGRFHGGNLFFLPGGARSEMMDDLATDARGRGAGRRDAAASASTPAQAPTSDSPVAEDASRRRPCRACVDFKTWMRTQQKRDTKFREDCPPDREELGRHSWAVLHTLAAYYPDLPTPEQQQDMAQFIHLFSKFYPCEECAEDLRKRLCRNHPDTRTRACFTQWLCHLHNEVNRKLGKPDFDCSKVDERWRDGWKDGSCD

[15] = biological target: Photoreceptor-specific nuclear receptor (Homo sapiens, UniProt Q9Y5X4); format: functional, cell-based;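 further: CHO-S cells with Gal4-NCOR and VP16-NR2E3 two-hybrid luciferase reporter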
Sequence of Photoreceptor-specific nuclear receptor (Q9Y5X4 whole entry, the tested form may be a part): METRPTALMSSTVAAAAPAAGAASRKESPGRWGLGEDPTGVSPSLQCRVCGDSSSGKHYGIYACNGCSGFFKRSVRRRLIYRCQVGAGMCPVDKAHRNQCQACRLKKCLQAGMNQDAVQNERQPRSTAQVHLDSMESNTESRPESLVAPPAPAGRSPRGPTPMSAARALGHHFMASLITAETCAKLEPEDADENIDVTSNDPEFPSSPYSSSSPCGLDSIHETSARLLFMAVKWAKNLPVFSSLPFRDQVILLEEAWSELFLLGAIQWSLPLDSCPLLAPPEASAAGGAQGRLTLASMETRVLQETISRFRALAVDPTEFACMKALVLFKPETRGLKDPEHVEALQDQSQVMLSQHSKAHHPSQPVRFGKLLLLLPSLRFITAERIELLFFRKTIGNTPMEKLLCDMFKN

[16] = biological target: T6, Mitochondrial peptide methionine sulfoxide reductase (Bos taurus, UniProt P54149); assay: Absorbance-based biochemical high throughput dose response assay for activators of Methionine sulfoxide reductase A (MsrA).; format: functional
T6 sequence (P54149 whole entry): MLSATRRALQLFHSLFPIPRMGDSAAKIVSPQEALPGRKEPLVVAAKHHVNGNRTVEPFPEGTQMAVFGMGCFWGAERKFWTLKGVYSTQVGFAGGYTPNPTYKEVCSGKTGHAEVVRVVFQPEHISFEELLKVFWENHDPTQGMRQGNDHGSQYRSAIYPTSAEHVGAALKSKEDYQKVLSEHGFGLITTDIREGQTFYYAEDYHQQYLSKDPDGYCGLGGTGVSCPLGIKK

[17] = Counterscreen for inhibitors of Trypanosoma brucei methionyl tRNA synthetase (MetRS): Luminescence-based cell-based high throughput dose response assay to identify compounds that are cytotoxic to Jurkat human T lymphocyte cells.; format: functional
[18] = biological target: T7, Methionyl-tRNA synthetase, putative (Trypanosoma brucei brucei, UniProt Q38C91); format: functional, Trypanosoma brucei brucei strain 927/4 GUTat10.1
T7 sequence (Q38C91 whole entry): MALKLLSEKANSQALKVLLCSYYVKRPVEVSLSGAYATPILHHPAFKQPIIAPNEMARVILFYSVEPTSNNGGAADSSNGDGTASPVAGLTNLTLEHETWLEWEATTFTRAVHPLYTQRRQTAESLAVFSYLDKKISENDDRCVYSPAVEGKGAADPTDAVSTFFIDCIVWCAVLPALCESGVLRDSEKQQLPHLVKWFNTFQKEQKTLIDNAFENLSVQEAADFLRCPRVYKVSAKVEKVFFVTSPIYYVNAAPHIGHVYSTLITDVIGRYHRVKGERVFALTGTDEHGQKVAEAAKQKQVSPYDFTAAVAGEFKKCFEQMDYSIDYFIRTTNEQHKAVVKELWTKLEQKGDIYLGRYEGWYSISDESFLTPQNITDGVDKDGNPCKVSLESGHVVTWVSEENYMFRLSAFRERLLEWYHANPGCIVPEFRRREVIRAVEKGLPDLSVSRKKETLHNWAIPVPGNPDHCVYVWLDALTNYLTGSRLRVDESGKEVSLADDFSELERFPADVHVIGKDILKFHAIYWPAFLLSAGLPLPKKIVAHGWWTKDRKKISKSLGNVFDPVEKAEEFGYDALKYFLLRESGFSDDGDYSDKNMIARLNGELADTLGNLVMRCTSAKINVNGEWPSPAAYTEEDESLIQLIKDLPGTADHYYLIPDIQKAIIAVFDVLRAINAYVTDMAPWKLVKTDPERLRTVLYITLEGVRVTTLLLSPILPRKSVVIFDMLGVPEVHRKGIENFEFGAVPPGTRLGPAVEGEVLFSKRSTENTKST

[19] = biological target: T7, Methionyl-tRNA synthetase, putative; format: functional, Trypanosoma brucei brucei strain 927/4 GUTat10.1; remark: listed apart in the source
[20] = biological target: T8, Streptokinase A (Streptococcus pyogenes serotype M1, UniProt P10520); assay: S. pyogenes streptokinase expression inhibitors, potency, dose response, plasminogen activation absorbance, OD405 (AID 1914); format: functional, Streptococcus pyogenes M1 GAS;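 further: secreted streptokinase activity via plasminogen activation per viability signal from cell pellet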
T8 sequence (P10520 whole entry): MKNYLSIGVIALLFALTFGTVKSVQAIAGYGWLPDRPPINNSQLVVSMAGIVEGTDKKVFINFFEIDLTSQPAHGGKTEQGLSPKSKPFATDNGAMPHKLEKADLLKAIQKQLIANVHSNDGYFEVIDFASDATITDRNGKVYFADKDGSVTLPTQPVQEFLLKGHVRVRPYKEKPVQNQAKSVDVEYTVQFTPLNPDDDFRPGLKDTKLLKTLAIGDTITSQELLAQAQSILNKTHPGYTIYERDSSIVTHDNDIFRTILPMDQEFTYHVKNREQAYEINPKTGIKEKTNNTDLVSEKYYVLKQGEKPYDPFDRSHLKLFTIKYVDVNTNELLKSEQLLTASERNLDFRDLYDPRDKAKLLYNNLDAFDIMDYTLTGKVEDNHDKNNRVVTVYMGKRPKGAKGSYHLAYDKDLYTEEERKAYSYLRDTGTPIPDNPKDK

[21] = tested on: Streptococcus sp. 'group A'; assay: growth inhibition of control SK(-) GAS strain, dose response, counter-screen for streptokinase expression inhibitor project, luminescence, kanamycin, BacTiterGlo, confirmation (AID 1900); format: functional, organism-based
[22] = tested on: Streptococcus; assay: Group A Streptococcus viability loss, dose response, counter-screen for streptokinase expression inhibitor project, luminescence, BacTiterGlo (AID 1915); format: functional, organism-based;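 further: potency for reduction of bacterial viability or growth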
[23] = HEp-2 cell cytotoxicity, dose response, cytotoxicity control for RSV inhibitor project, HTS (AID 2410); format: functional; conditions: human respiratory syncytial virus

O=C(C[N+]1(CC#Cc2ccccc2)CCOCC1)c1ccc(Cl)cc1
IC50 [1]: 39.4 µM (not active)
EC50 [2]: > 40 µM (inactive)

COc1ccc(N=C2C(=O)Nc3ccc(C)c(Br)c32)cc1
IC50 [1]: 3.94 µM (active)
EC50 [2]: > 40 µM (inactive)

Cc1ccc(/N=C2\C(=O)Nc3ccccc32)cc1
IC50 [1]: > 40 µM (not active)
EC50 [2]: > 40 µM (inactive)

O=C(CNc1cccc(Cl)c1)c1ccc(Cl)cc1
IC50 [1]: 5.07 µM (active)
EC50 [2]: > 40 µM (inactive)

O=C(O)c1cn(C2CC2)c2cc(N3CCN(S(=O)(=O)c4ccc5c(c4)OCCO5)CC3)c(F)cc2c1=O
IC50 [3]: 2.89 µM (active)

Cc1cc2ncn(CCOc3ccccc3)c2cc1C
EC50 [4]: 19.4 µM (active)
EC50 [5]: 39 µM (active)
AC50 [6]: 41.4 µM (active)
EC50 [7]: 38.8 µM (active)

CCOC(=O)CSC1=NC(=O)/C(=C\c2ccc(OC(C)=O)cc2)S1
EC50 [4]: 8.97 µM (active)
AC50 [8]: 0.216 µM (active)
EC50 [5]: 10.4 µM (active)
EC50 [9]: > 99 µM (inactive)
IC50 [10]: 35.2 µM (active)
EC50 [11]: > 99 µM (inactive)
AC50 [12]: 14.1 µM (inconclusive)
AC50 [13]: 5.12 µM (active)
EC50 [7]: 10.5 µM (active)

CC(=O)Nc1ccc(S(=O)(=O)N2CCN=C2SCc2ccc([N+](=O)[O-])cc2)cc1
AC50 [14]: 0.252 µM (active)
IC50 [15]: 2.82 µM (active)

O=C(Nc1ccc(O)c(-c2nc3ccccc3s2)c1)c1cc(=O)c2ccccc2o1
IC50 [3]: 5.27 µM (active)

COc1cc(Nc2ccc(C(=O)O)cc2[N+](=O)[O-])cc(OC)c1
EC50 [16]: > 104 µM (inactive)

O=C(COC(=O)c1ccc([N+](=O)[O-])s1)NC(c1ccccc1)c1ccccc1
EC50 [16]: 32.8 µM (inactive)

Cc1ccc(SCCC(=O)N/N=C/c2cccnc2)cc1
IC50 [17]: 83.3 µM (inactive)
IC50 [18]: 29.2 µM (inactive)
IC50 [19]: 25.9 µM (inactive)

O=C(Cc1ccc(S(=O)(=O)N2CCOCC2)s1)Nc1ccc(Br)c(C(F)(F)F)c1
IC50 [17]: 46.7 µM (inactive)
IC50 [18]: 19.2 µM (inactive)
IC50 [19]: 20.9 µM (inactive)

O=C(NNC(=O)c1cc(-c2ccc(Cl)cc2Cl)nc2ccccc12)Nc1ccccc1
IC50 [17]: 42.2 µM (inactive)
EC50 [20]: 20.4 µM (active)
EC50 [21]: 5.3 µM (active)
EC50 [22]: 8.55 µM (active)
IC50 [18]: 2.74 µM (active)
CC50 [23]: 16.9 µM (active)
IC50 [19]: 1.28 µM (active)
